In publication PMC11597885, “Enhancing Antileishmanial Activity of Amidoxime-Based Compounds Bearing a 4,5-Dihydrofuran Scaffold: In Vitro Screening Against Leishmania amazonensis” (Molecules, 2024):
Like-named read-outs stand apart in the source and are kept apart here.

Key:
[1] = system: Leishmania amazonensis promastigotes, strain MHOM/BR/77/LTB0016; assay: Antipromastigote activity assay (resazurin); type: cell-based; details: 72 h, mean ± SD from three independent experiments, read-out: Activity IC50 (µM/72 h), promastigote form of L. amazonensis
Procedure: Initially, compounds 14 to 25 were subjected to preliminary in vitro screening against Leishmania amazonensis promastigotes, strain MHOM/BR/77/LTB0016. The 50% growth inhibitory concentration (IC50) was measured after 72 h of cultivation with each compound using a resazurin assay conducted in independent triplicate experiments. […] Leishmania amazonensis (MHOM/BR/77/LTB0016) was cultured as promastigotes at 26 °C using Schneider’s insect medium (Sigma-Aldrich, St Louis, MO, USA), supplemented with 10% heat-inactivated fetal calf serum (HIFCS), 100 μg/mL streptomycin, and 100 U/mL penicillin. The parasites were sustained up to the 10th passage, after which fresh cultures were derived from infected host animals. L. amazonensis promastigotes were cultured in Schneider’s insect medium with 10% HIFCS, as described above, with or without various concentrations of test substances. The initial cell density was 1.0 × 10^6 cells/mL, and the culture was kept at 26 °C for 72 h. Resazurin reduction was used to evaluate the cell viability. The concentration required to inhibit 50% of the promastigote activity (IC50) was calculated using logarithmic regression analysis via GraphPrism 5 software.

[2] = system: intracellular amastigote form of Leishmania amazonensis; assay: Antiamastigote activity assay (infected peritoneal macrophages, infection index); type: cell-based; details: Macrophage, 72 h, L. amazonensis in murine macrophages, mean ± SD from three independent experiments, read-out: Intracellular Amastigotes IC50 (µM/72 h)
Procedure: Resident peritoneal macrophages were seeded in RPMI medium (Sigma-Aldrich) at 1 × 10^6 cells/mL (0.4 mL/well) on Lab-Tek eight-chamber slides (Nunc) and incubated at 37 °C in 5% CO2 for 1 h. After this period, nonadherent cells were removed, and the adherent macrophages were co-cultured with L. amazonensis promastigotes at a 5:1 parasite-to-cell ratio. After 4 h, the monolayers were washed to eliminate free parasites. Cells were then treated with different concentrations of the compounds and incubated for 72 h at 37 °C in 5% CO2. Following incubation, the slides were stained using the Instant Prov hematological dye (Newprov, Curitiba, Brazil), and antileishmanial activity was assessed microscopically. Amastigote numbers were determined by counting at least 100 macrophages per sample, and the results were expressed as an infection index (II), calculated as: II = (percentage of infected cells) × (number of amastigotes/total macrophages). Dose–response curves for the antiamastigote activity were generated using nonlinear regression in GraphPad Prism 5.0, and IC50 values were calculated.

[3] = Cytotoxicity assay (resazurin); type: cell-based; details: mouse, murine peritoneal macrophages, 0–200 µM tested, mean ± SD from three independent experiments
Procedure: Murine peritoneal macrophages were collected by flushing the peritoneal cavity with 5 mL of RPMI 1640 medium containing 10% HIFCS, 2 mM L-glutamine, 1 mM pyruvate, 100 μg/mL streptomycin, and 100 U/mL penicillin. The macrophage suspension was adjusted to 1.0 × 10^6 cells/mL and then plated in triplicate in 96-well plates (Falcon Co., Franklin Lakes, NJ, USA). Cultures were incubated at 37 °C in a 5% CO2 environment for 1 h. Nonadherent cells were subsequently removed, and the remaining cells were exposed to varying concentrations of test compounds (0–200 μM) for 72 h. Viability was assessed using a resazurin assay, and the concentration that caused 50% cytotoxicity (CC50) was determined using logarithmic regression analysis with GraphPrism 5 software.

[4] = system: intracellular amastigote form of Leishmania amazonensis; parameters: method as in PMID 21555166, PMID 20833057; details: previously reported HIT; read-out: IC50 for the intracellular amastigote form of L. amazonensis; cited from earlier work

| SMILES | IC50 [1] [µM] | IC50 [2] [µM] | CC50 at 72 h [3] [µM] | IC50 [4] [µM] |
| --- | --- | --- | --- | --- |
| CC1(Cc2ccccc2)CC(C(=O)Nc2ccc(Br)cn2)=C(c2ccc(C(N)=NO)cc2)O1 (stereo not shown) [Compound 14, 5-Benzyl-N-(5-bromopyridin-2-yl)-2-(4-(N′-hydroxycarbamimidoyl)phenyl)-5-methyl-4,5-dihydrofuran-3-carboxamide] | 15 ± 1.03 | 0.5 ± 0.15 | 171.5 ± 1.19 | – |
| CC1(Cc2ccccc2)CC(C(=O)Nc2ccc(Cl)cn2)=C(c2ccc(C(N)=NO)cc2)O1 (stereo not shown) [Compound 15, 5-Benzyl-N-(5-chloropyridin-2-yl)-2-(4-(N′-hydroxycarbamimidoyl)phenyl)-5-methyl-4,5-dihydrofuran-3-carboxamide] | 16 ± 1.03 | 0.6 ± 0.2 | > 200 | – |
| Cc1ccc(NC(=O)C2=C(c3ccc(C(N)=NO)cc3)OC(C)(Cc3ccccc3)C2)nc1 (stereo not shown) [Compound 16, 5-Benzyl-2-(4-(N′-hydroxycarbamimidoyl)phenyl)-5-methyl-N-(5-methylpyridin-2-yl)-4,5-dihydrofuran-3-carboxamide] | 17 ± 1.02 | 0.3 ± 0.07 | > 200 | – |
| CC1(Cc2ccccc2)CC(C(=O)Nc2ccccn2)=C(c2ccc(C(N)=NO)cc2)O1 (stereo not shown) [Compound 17, 5-Benzyl-2-(4-(N′-hydroxycarbamimidoyl)phenyl)-5-methyl-N-(pyridin-2-yl)-4,5-dihydrofuran-3-carboxamide] | 22.4 ± 1.02 | – | – | – |
| CC1(Cc2ccccc2)CC(C(=O)Nc2ccncc2)=C(c2ccc(C(N)=NO)cc2)O1 (stereo not shown) [Compound 18, 5-Benzyl-2-(4-(N′-hydroxycarbamimidoyl)phenyl)-5-methyl-N-(pyridin-4-yl)-4,5-dihydrofuran-3-carboxamide] | 23.5 ± 1.04 | – | – | – |
| CC1(Cc2ccccc2)CC(C(=O)Nc2ccccc2)=C(c2ccc(C(N)=NO)cc2)O1 (stereo not shown) [Compound 19, 5-Benzyl-2-(4-(N′-hydroxycarbamimidoyl)phenyl)-5-methyl-N-phenyl-4,5-dihydrofuran-3-carboxamide] | 23.8 ± 1.02 | – | – | – |
| CC1(Cc2ccccc2)CC(C(=O)Nc2ccc(F)cc2)=C(c2ccc(C(N)=NO)cc2)O1 (stereo not shown) [Compound 20, 5-Benzyl-N-(4-fluorophenyl)-2-(4-(N′-hydroxycarbamimidoyl)phenyl)-5-methyl-4,5-dihydrofuran-3-carboxamide] | 23.8 ± 1.02 | – | – | – |
| CC1(Cc2ccccc2)CC(C(=O)NCc2ccc(C(F)(F)F)cc2)=C(c2ccc(C(N)=NO)cc2)O1 (stereo not shown) [Compound 21, 5-Benzyl-2-(4-(N′-hydroxycarbamimidoyl)phenyl)-5-methyl-N-(4-(trifluoromethyl)benzyl)-4,5-dihydrofuran-3-carboxamide] | 26.4 ± 1.02 | – | – | – |
| CC1(Cc2ccccc2)CC(C(=O)Nc2cccnn2)=C(c2ccc(C(N)=NO)cc2)O1 (stereo not shown) [Compound 22, 5-Benzyl-2-(4-(N′-hydroxycarbamimidoyl)phenyl)-5-methyl-N-(pyridazin-3-yl)-4,5-dihydrofuran-3-carboxamide] | 29.9 ± 1.02 | – | – | – |
| CC1(Cc2ccccc2)CC(C(=O)Nc2ccc(Cl)nn2)=C(c2ccc(C(N)=NO)cc2)O1 (stereo not shown) [Compound 23, 5-Benzyl-N-(6-chloropyridazin-3-yl)-2-(4-(N′-hydroxycarbamimidoyl)phenyl)-5-methyl-4,5-dihydrofuran-3-carboxamide] | 36.4 ± 1.03 | – | – | – |
| CC1(Cc2ccccc2)CC(C(=O)Nc2cnccn2)=C(c2ccc(C(N)=NO)cc2)O1 (stereo not shown) [Compound 24, 5-Benzyl-2-(4-(N′-hydroxycarbamimidoyl)phenyl)-5-methyl-N-(pyrazin-2-yl)-4,5-dihydrofuran-3-carboxamide] | 39.4 ± 1.02 | – | – | – |
| Cc1cc(NC(=O)C2=C(c3ccc(C(N)=NO)cc3)OC(C)(Cc3ccccc3)C2)nn1C (stereo not shown) [Compound 25, 5-Benzyl-N-(1,5-dimethyl-1H-pyrazol-3-yl)-2-(4-(N′-hydroxycarbamimidoyl)phenyl)-5-methyl-4,5-dihydrofuran-3-carboxamide] | 52.5 ± 1.03 | – | – | – |
| CC1(Cc2ccccc2)CC(S(=O)(=O)c2ccc(F)cc2)=C(c2ccc(C(N)=NO)cc2)O1 (stereo not shown) [HIT, 4-(5-benzyl-3-((4-fluorophenyl)sulfonyl)-5-methyl-4,5-dihydrofuran-2-yl)-N′-hydroxybenzimidamide] | – | – | – | 7.9 ± 1.1 |
